Data from the supplement of paper PMC8671470.

Tests used:
Details in all cases: 72 h
BV-173 [1] = test: cell viability (% survival relative to DMSO control, bortezomib = 0%); higher = less cytotoxic
Outline: (§1)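 Fifteen myeloid leukaemia cell lines were exposed to compounds at 1, 10, 100, 1000 or 10000 nM in 384-well plates for 72 h at 37 °C and 5% CO2. Viability was read by CellTiter-Glo luminescence and normalised, with vehicle as 100% and a 10 µM positive control as 0%. Values are percent survival averaged over duplicates.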

MOLM-13 [2] = test: as above
Outline: as §1

KG-1 [3] = test: as above
Outline: as §1

HL-60 [4] = test: as above
Outline: as §1

Mono-Mac-6 [5] = test: as above
Outline: as §1

K-562 [6] = test: as above
Outline: as §1

KCL-22 [7] = test: as above
Outline: as §1

ML-2 [8] = test: as above
Outline: as §1

HEL [9] = test: as above
Outline: as §1

NOMO-1 [10] = test: as above
Outline: as §1

MV4-11 [11] = test: as above
Outline: as §1

SHI-1 [12] = test: as above
Outline: as §1

THP-1 [13] = test: as above
Outline: as §1

KU-812 [14] = test: as above
Outline: as §1

HL-60 [15] = test: area under dose-response curve (viability, 1 nM-10 uM) (fraction (0-1)); higher = more sensitive
Outline: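 HL-60 cells in RPMI 1640 with 10% FBS were rescreened against the full library on 384-well plates at five tenfold concentrations, 1–10,000 nM, in duplicate. Each screen was run with DMSO or 100 nM of one of three metabolic inhibitors, for 72 h at 37 °C, 5% CO2. Viability was read by CellTiter-Glo and normalised to DMSO and 10 μM proteasome-inhibitor wells. Where given, area under the curve came from four-parameter log-logistic fits (drc, PharmacoGx).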

BV-173 [16] = test system: BV-173
Outline: (§2)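 In 384-well plates holding acoustically pre-printed compounds at five tenfold doses from 1 to 10,000 nM, in duplicate, fifteen myeloid leukaemia cell lines were grown in RPMI 1640 for 72 h at 37 °C with 5% CO2. Luminescent ATP viability was scaled between vehicle and a positive control at 10 µM. The IC50 was then taken from log-logistic dose–response fits with four parameters.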

MOLM-13 [17] = test system: MOLM-13
Outline: as §2

KG-1 [18] = test system: KG-1
Outline: as §2

HL-60 [19] = test system: HL-60
Outline: as §2

Mono-Mac-6 [20] = test system: Mono-Mac-6
Outline: as §2

K-562 [21] = test system: K-562
Outline: as §2

KCL-22 [22] = test system: KCL-22
Outline: as §2

ML-2 [23] = test system: ML-2
Outline: as §2

HEL [24] = test system: HEL
Outline: as §2

LAMA-84 = test system: LAMA-84
Outline: as §2

NOMO-1 [25] = test system: NOMO-1
Outline: as §2

MV4-11 [26] = test system: MV4-11
Outline: as §2

SHI-1 [27] = test system: SHI-1
Outline: as §2

THP-1 [28] = test system: THP-1
Outline: as §2

KU-812 [29] = test system: KU-812
Outline: as §2

O=C(O)c1cc(N=Nc2ccc(S(=O)(=O)Nc3ccccn3)cc2)ccc1O [Sulfasalazine]
Details	area under dose-response curve, co-treatment: AZD3965 100 nM	area under dose-response curve, co-treatment: DMSO vehicle	area under dose-response curve, co-treatment: GSK2194069 100 nM	area under dose-response curve, co-treatment: pictilisib 100 nM	cell viability, 1 nM [%]	cell viability, 10 nM [%]	cell viability, 100 nM [%]	cell viability, 1000 nM [%]	cell viability, 10000 nM [%]
BV-173 [1]	–	–	–	–	106	90.3	113	99.7	112
HEL [9]	–	–	–	–	111	91.9	114	94	111
HL-60 [4]	–	–	–	–	99.4	71.4	135	106	70.8
HL-60 [15]	< 0.0301	< 0.0301	< 0.0301	< 0.0301	–	–	–	–	–
K-562 [6]	–	–	–	–	100	91.6	120	90.3	131
KCL-22 [7]	–	–	–	–	107	97.3	106	92.9	124
KG-1 [3]	–	–	–	–	103	89	112	43.4	128
KU-812 [14]	–	–	–	–	110	98.2	107	108	102
ML-2 [8]	–	–	–	–	106	87.4	118	112	102
MOLM-13 [2]	–	–	–	–	105	102	113	84.6	136
MV4-11 [11]	–	–	–	–	101	89.1	112	95.9	103
Mono-Mac-6 [5]	–	–	–	–	105	92.7	120	103	104
NOMO-1 [10]	–	–	–	–	112	101	99	101	102
SHI-1 [12]	–	–	–	–	107	87.6	114	97.8	95.7
THP-1 [13]	–	–	–	–	107	101	106	101	106

Details	IC50 (cell viability) [µM]
BV-173 [16]	> 10
HEL [24]	> 10
HL-60 [19]	> 10
K-562 [21]	> 10
KCL-22 [22]	> 10
KG-1 [18]	> 10
KU-812 [29]	> 10
LAMA-84	> 10
ML-2 [23]	> 10
MOLM-13 [17]	> 10
MV4-11 [26]	> 10
Mono-Mac-6 [20]	> 10
NOMO-1 [25]	> 10
SHI-1 [27]	> 10
THP-1 [28]	> 10

C=C(C=NNC(=N)N)NNC(=N)N [Mitoguazone]
Details	area under dose-response curve, co-treatment: AZD3965 100 nM	area under dose-response curve, co-treatment: DMSO vehicle	area under dose-response curve, co-treatment: GSK2194069 100 nM	area under dose-response curve, co-treatment: pictilisib 100 nM	cell viability, 1 nM [%]	cell viability, 10 nM [%]	cell viability, 100 nM [%]	cell viability, 1000 nM [%]	cell viability, 10000 nM [%]
BV-173 [1]	–	–	–	–	105	111	107	71	13.3
HEL [9]	–	–	–	–	103	108	97.5	93.2	50.4
HL-60 [4]	–	–	–	–	85.2	73.2	148	97.7	32.9
HL-60 [15]	0.0689	< 0.0301	0.0353	0.0324	–	–	–	–	–
K-562 [6]	–	–	–	–	96.1	105	114	67	29.3
KCL-22 [7]	–	–	–	–	94.4	100	103	86.9	42
KG-1 [3]	–	–	–	–	94.9	97.2	103	84.7	34.8
KU-812 [14]	–	–	–	–	105	107	96.5	83	30.6
ML-2 [8]	–	–	–	–	97.7	104	100	56.6	24.7
MOLM-13 [2]	–	–	–	–	93.7	88.3	133	52.2	13.8
MV4-11 [11]	–	–	–	–	105	99.2	115	59.8	10.4
Mono-Mac-6 [5]	–	–	–	–	92.4	92.3	85.5	55.3	18.1
NOMO-1 [10]	–	–	–	–	94.9	102	90.9	61.7	16.2
SHI-1 [12]	–	–	–	–	93.8	89.2	95.4	59.8	20.6
THP-1 [13]	–	–	–	–	101	104	94.9	76.1	43.6

Details	IC50 (cell viability) [µM]
BV-173 [16]	1.44
HEL [24]	9.12
HL-60 [19]	7.01
K-562 [21]	1.32
KCL-22 [22]	4.4
KG-1 [18]	3.31
KU-812 [29]	4.55
LAMA-84	2.29
ML-2 [23]	0.916
MOLM-13 [17]	0.944
MV4-11 [26]	1.13
Mono-Mac-6 [20]	1.24
NOMO-1 [25]	1.59
SHI-1 [27]	1.1
THP-1 [28]	3.08
